Source: the CheMixHub viscosity set

Test: xn = mol fraction of the nth substance listed

CC(C)CCCC(C)CCCC(C)CCCC(C)C (stereo not drawn) + CCCCCCCCCCCCCCCC
298.15 K, 101.33 kPa
Details | viscosity [mPa·s]
x2 = 0.0966 | 5.129
x2 = 0.1996 | 4.843
x2 = 0.2995 | 4.565
x2 = 0.3995 | 4.303
x2 = 0.4994 | 4.063
x2 = 0.5995 | 3.839
x2 = 0.6995 | 3.631
x2 = 0.8001 | 3.438
x2 = 0.85 | 3.332

CC(C)CCCC(C)CCCC(C)CCCCC(C)CCCC(C)CCCC(C)C (stereo not drawn) + CCCCCCCCCCCCCCCC
298.15 K, 101.33 kPa
Details | viscosity [mPa·s]
x2 = 0.045 | 26.05
x2 = 0.099 | 23.59
x2 = 0.1473 | 21.54
x2 = 0.2008 | 19.45
x2 = 0.2977 | 16.16
x2 = 0.4495 | 11.84
x2 = 0.6011 | 8.569
x2 = 0.8001 | 5.307

CCCCCCCCCCCCO + CCCCCCCCCCCO
viscosity [mPa·s], 101.8 kPa
Details | x2 = 0.105 | x2 = 0.3165 | x2 = 0.5196 | x2 = 0.7165 | x2 = 0.9076
298.15 K | 16.69 | 16.05 | 15.53 | 15 | 14.51
308.15 K | 11.29 | 10.91 | 10.58 | 10.23 | 9.905
318.15 K | 7.895 | 7.633 | 7.418 | 7.19 | 6.977

CCCCCCCCCCCCO + CCCCCCCCCCO
viscosity [mPa·s], 101.8 kPa
Details | x2 = 0.1151 | x2 = 0.3347 | x2 = 0.5407 | x2 = 0.7346 | x2 = 0.9162
298.15 K | 16.35 | 15.13 | 14.02 | 13.03 | 12.15
308.15 K | 11.08 | 10.31 | 9.627 | 8.957 | 8.384
318.15 K | 7.752 | 7.245 | 6.775 | 6.357 | 5.973

CCCCCCCCCCCCO + CCCCCCCCCO
viscosity [mPa·s], 101.8 kPa
Details | x2 = 0.1246 | x2 = 0.3557 | x2 = 0.5641 | x2 = 0.7516 | x2 = 0.9218
298.15 K | 15.91 | 14.07 | 12.49 | 11.2 | 10.02
308.15 K | 10.86 | 9.686 | 8.677 | 7.814 | 7.056
318.15 K | 7.599 | 6.831 | 6.182 | 5.591 | 5.091

CC(C)CCCC(C)CCCC(C)CCCCC(C)CCCC(C)CCCC(C)C (stereo not drawn) + CCCCCCCCO
Details | viscosity [mPa·s]
298.15 K, 101 kPa, x2 = 0.5974 | 13.55

CCCCCCCCCCCCO + CCCCCCCCO
viscosity [mPa·s], 101.8 kPa
Details | x2 = 0.1377 | x2 = 0.3798 | x2 = 0.589 | x2 = 0.7701 | x2 = 0.9281
298.15 K | 15.08 | 12.91 | 11.11 | 9.509 | 8.204
308.15 K | 10.21 | 8.958 | 7.745 | 6.704 | 5.873
318.15 K | 7.201 | 6.357 | 5.553 | 4.856 | 4.284
